Assay results taken from PubChem BioAssay AID256 (DTP/NCI, 2004).
Several values for one entry are separate records, joined by “and”; a condition that tells them apart may be missing. Identical values can stand only once. Inconclusive results and toxic doses are left out. How the source made its calls: active means survival T/C of 150% or more; inactive means T/C below 125% in these data.

Tested on: CD2F1 mice, L1210 leukemia ip, survival T/C
Assay: NCI In Vivo Anticancer Drug Screen. Data for tumor model L1210 Leukemia (intraperitoneal) in CD2F1 (CDF1) mice
Details: higher = longer survival
In short: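 Compound-dosed mice with transplantable tumor versus matched vehicle controls; endpoint ratio T/C reported.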

[1] = endpoint: mean survival time, dose: 100.0 mg/kg/injection, schedule: Q01DX009 (ip), vehicle: saline with Tween-80
[2] = endpoint: mean survival time, dose: 200.0 mg/kg/injection, schedule: Q01DX009 (ip), vehicle: saline with Tween-80
[3] = endpoint: mean survival time, dose: 400.0 mg/kg/injection, schedule: Q01DX001 (ip), vehicle: saline
[4] = endpoint: mean survival time, dose: 100.0 mg/kg/injection, schedule: Q04DX003 (ip), vehicle: saline with Tween-80
[5] = endpoint: mean survival time, dose: 200.0 mg/kg/injection, schedule: Q04DX003 (ip), vehicle: saline with Tween-80
[6] = endpoint: mean survival time, dose: 100.0 mg/kg/injection, schedule: Q04DX002 (ip), vehicle: saline with Tween-80
[7] = endpoint: mean survival time, dose: 200.0 mg/kg/injection, schedule: Q04DX002 (ip), vehicle: saline with Tween-80
[8] = endpoint: mean survival time, dose: 400.0 mg/kg/injection, schedule: Q01DX009 (ip), vehicle: saline with Tween-80
[9] = endpoint: mean survival time, dose: 400.0 mg/kg/injection, schedule: Q04DX002 (ip), vehicle: saline with Tween-80
[10] = endpoint: mean survival time, dose: 400.0 mg/kg/injection, schedule: Q04DX003 (ip), vehicle: saline with Tween-80
[11] = endpoint: mean survival time, dose: 50.0 mg/kg/injection, schedule: Q01DX009 (ip), vehicle: saline
[12] = endpoint: mean survival time, dose: 100.0 mg/kg/injection, schedule: Q01DX009 (ip), vehicle: saline
[13] = endpoint: mean survival time, dose: 100.0 mg/kg/injection, schedule: Q01DX001 (ip), vehicle: saline with Tween-80
[14] = endpoint: mean survival time, dose: 200.0 mg/kg/injection, schedule: Q01DX001 (ip), vehicle: saline with Tween-80
[15] = endpoint: mean survival time, dose: 100.0 mg/kg/injection, schedule: Q04DX002 (ip), vehicle: saline
[16] = endpoint: mean survival time, dose: 200.0 mg/kg/injection, schedule: Q04DX002 (ip), vehicle: saline
[17] = endpoint: mean survival time, dose: 400.0 mg/kg/injection, schedule: Q04DX002 (ip), vehicle: saline

Measured: T/C

c1cc2c(c(NC3=NCCCO3)c1)CCCC2
inactive: endpoint: mean survival time, dose: 12.5 mg/kg/injection, schedule: Q04DX003 (ip), vehicle: saline with Tween-80 97 % of control | endpoint: mean survival time, dose: 25.0 mg/kg/injection, schedule: Q04DX003 (ip), vehicle: saline with Tween-80 106 % of control | endpoint: mean survival time, dose: 50.0 mg/kg/injection, schedule: Q04DX003 (ip), vehicle: saline with Tween-80 101 % of control

CC(=O)OCC1OC(OC(C)=O)C(NC(=O)N(CCSCCCl)N=O)C(OC(C)=O)C1OC(C)=O (configuration not stated)
inactive: endpoint: mean survival time, dose: 0.78 mg/kg/injection, schedule: Q01DX001 (ip), vehicle: water 96 % of control | endpoint: mean survival time, dose: 1.56 mg/kg/injection, schedule: Q01DX001 (ip), vehicle: water 102 % of control | endpoint: mean survival time, dose: 3.12 mg/kg/injection, schedule: Q01DX001 (ip), vehicle: water 106 % of control | endpoint: mean survival time, dose: 6.25 mg/kg/injection, schedule: Q01DX001 (ip), vehicle: distilled water + Tween-80 106 % of control | endpoint: mean survival time, dose: 6.25 mg/kg/injection, schedule: Q01DX001 (ip), vehicle: water 106 % of control

CCCCOC(=O)c1ccccc1
inactive: [1] 102 % of control | [2] 104 % of control

CCOC(=O)CSc1ccccc1
inactive: endpoint: mean survival time, dose: 25.0 mg/kg/injection, schedule: Q01DX005 (ip), vehicle: Klucel (hydroxypropylcellulose) (HPC) 93 % of control | endpoint: mean survival time, dose: 50.0 mg/kg/injection, schedule: Q01DX005 (ip), vehicle: Klucel (hydroxypropylcellulose) (HPC) 95 % of control | endpoint: mean survival time, dose: 100.0 mg/kg/injection, schedule: Q01DX001 (ip), vehicle: saline 102 % of control | endpoint: mean survival time, dose: 100.0 mg/kg/injection, schedule: Q01DX005 (ip), vehicle: Klucel (hydroxypropylcellulose) (HPC) 102 % of control | endpoint: mean survival time, dose: 200.0 mg/kg/injection, schedule: Q01DX001 (ip), vehicle: saline 100 % of control | endpoint: mean survival time, dose: 200.0 mg/kg/injection, schedule: Q01DX005 (ip), vehicle: Klucel (hydroxypropylcellulose) (HPC) 95 % of control | [3] 100 % of control | endpoint: mean survival time, dose: 400.0 mg/kg/injection, schedule: Q01DX005 (ip), vehicle: Klucel (hydroxypropylcellulose) (HPC) 95 % of control

O=C1CSC(=S)N1/N=C/c1ccc2c(c1)OCO2
inactive: endpoint: mean survival time, dose: 75.0 mg/kg/injection, schedule: Q01DX001 (ip), vehicle: other 94 % of control | endpoint: mean survival time, dose: 150.0 mg/kg/injection, schedule: Q01DX001 (ip), vehicle: other 93 % of control | endpoint: mean survival time, dose: 300.0 mg/kg/injection, schedule: Q01DX001 (ip), vehicle: other 97 % of control

Cc1n[nH]n(Cc2ccccc2)c1=O
inactive: endpoint: mean survival time, dose: 25.0 mg/kg/injection, schedule: Q01DX005 (ip), vehicle: saline with Tween-80 97 % of control | endpoint: mean survival time, dose: 50.0 mg/kg/injection, schedule: Q01DX005 (ip), vehicle: saline with Tween-80 99 % of control | endpoint: mean survival time, dose: 100.0 mg/kg/injection, schedule: Q01DX005 (ip), vehicle: saline with Tween-80 97 % of control | endpoint: mean survival time, dose: 200.0 mg/kg/injection, schedule: Q01DX005 (ip), vehicle: saline with Tween-80 99 % of control | endpoint: mean survival time, dose: 400.0 mg/kg/injection, schedule: Q01DX005 (ip), vehicle: saline with Tween-80 97 % of control

ClP1(c2ccccc2)=NP(Cl)(c2ccccc2)=NP(Cl)(c2ccccc2)=NP(Cl)(c2ccccc2)=N1 (configuration not stated)
inactive: [4] 96 % of control | [5] 94 % of control

O=C1C=C(Nc2cccc(C(=O)O)c2)c2ccccc2C1=O
inactive: endpoint: mean survival time, dose: 75.0 mg/kg/injection, schedule: Q01DX001 (ip), vehicle: saline 101 % of control | endpoint: mean survival time, dose: 300.0 mg/kg/injection, schedule: Q01DX001 (ip), vehicle: saline 101 % of control

CCOC(=O)c1cnc(SCc2ccccc2Cl)nc1N1CC1
inactive: endpoint: mean survival time, dose: 28.05 mg/kg/injection, schedule: Q01DX009 (ip), vehicle: saline with Tween-80 115 % of control

CCOC(=O)C1CC(=O)C(C(=O)OCC)CC1=O (configuration not stated)
inactive: [1] 100 % of control | [6] 107 % of control | [4] 100 % of control | [2] 97 % of control | [7] 98 % of control | [5] 93 % of control | [8] 97 % of control | [9] 102 % of control | [10] 98 % of control

O=C(O)O.[Co]
inactive: [3] 105 % of control

O=C(O)C1C=CCC(C(=O)O)C1 (configuration not stated)
inactive: [11] 101 % of control | [12] 97 % of control | endpoint: mean survival time, dose: 200.0 mg/kg/injection, schedule: Q01DX009 (ip), vehicle: saline 101 % of control

O=C(c1ccccc1)C(Sc1ccccc1)c1ccccc1 (configuration not stated)
inactive: [4] 97 % of control | [5] 101 % of control | [10] 97 % of control

CCOc1ccccc1NCN1C(=O)c2ccccc2C1=O
inactive: endpoint: mean survival time, dose: 50.0 mg/kg/injection, schedule: Q04DX002 (ip), vehicle: saline with Tween-80 95 % of control | [6] 91 % of control | [7] 95 % of control | [9] 88 % of control

CC(=O)NC1=CC(=O)C(C)=CC1=O
inactive: endpoint: mean survival time, dose: 5.0 mg/kg/injection, schedule: Q01DX001 (ip), vehicle: saline 98 % of control | endpoint: mean survival time, dose: 10.0 mg/kg/injection, schedule: Q01DX001 (ip), vehicle: saline 98 % of control

COC(=O)c1cccc2c1OCO2
inactive: [1] 101 % of control | [4] 100 % of control | [2] 101 % of control | [5] 100 % of control | [8] 101 % of control | [10] 103 % of control

O=C1NC(=O)C2(CCN(CC3COc4ccccc4O3)CC2)N1c1ccccc1 (configuration not stated)
inactive: endpoint: mean survival time, dose: 50.0 mg/kg/injection, schedule: Q01DX001 (ip), vehicle: saline with Tween-80 96 % of control | [13] 101 % of control | [14] 96 % of control

NC1=C(N)C(=O)NC(N)N1 (configuration not stated)
inactive: [15] 102 % of control | [16] 102 % of control | [17] 100 % of control

CCOc1ccccc1NC(=O)NCC(=O)NNC(=O)Nc1ccc(Cl)c([N+](=O)[O-])c1
inactive: [1] 92 % of control | [2] 92 % of control | [8] 97 % of control

CCO/C=C1\SC(=S)N(c2cccc(OC)c2)C1=O
inactive: [4] 96 % of control | [5] 106 % of control | [10] 101 % of control

CN(C)CCN(C)C
inactive: [12] 96 % of control | endpoint: mean survival time, dose: 400.0 mg/kg/injection, schedule: Q01DX009 (ip), vehicle: saline 106 % of control

CC(O)C1(O)C(O)CC(OC2c3cc4c(c(O)c3[C@@H]3C[C@@]2(C)OC32C=c3cc[nH]c3=N2)C(=O)c2cccc(O)c2C4=O)OC1C (some centres not stated)
inactive: endpoint: median survival time, dose: 6.25 mg/kg/injection, schedule: Q01DX009 (ip), vehicle: saline with Tween-80 114 % of control | endpoint: median survival time, dose: 12.5 mg/kg/injection, schedule: Q01DX009 (ip), vehicle: saline with Tween-80 118 % of control | endpoint: median survival time, dose: 25.0 mg/kg/injection, schedule: Q01DX009 (ip), vehicle: saline with Tween-80 113 % of control | endpoint: median survival time, dose: 50.0 mg/kg/injection, schedule: Q01DX009 (ip), vehicle: saline with Tween-80 97 % of control

COc1ccc2ccccc2c1-c1c(O)ccc2ccccc12
inactive: endpoint: mean survival time, dose: 12.5 mg/kg/injection, schedule: Q01DX009 (ip), vehicle: other 101 % of control | endpoint: mean survival time, dose: 25.0 mg/kg/injection, schedule: Q01DX009 (ip), vehicle: other 97 % of control | endpoint: mean survival time, dose: 50.0 mg/kg/injection, schedule: Q01DX009 (ip), vehicle: other 91 % of control

CC(C)CCCC(C)C1CCC2C3=CCC4CC(O)CCC4(C)C3CCC21C (configuration not stated)
inactive: [4] 100 % of control | [5] 91 % of control | [10] 94 % of control

COc1ccc(OC)c(NC(=S)NC(=O)c2cccc(Br)c2)c1
inactive: [13] 93 % of control | [1] 95 % of control and 96 % of control | [6] 94 % of control and 100 % of control | [4] 95 % of control | [14] 88 % of control | [2] 95 % of control and 100 % of control | [7] 94 % of control and 100 % of control | [5] 91 % of control | endpoint: mean survival time, dose: 400.0 mg/kg/injection, schedule: Q01DX001 (ip), vehicle: saline with Tween-80 89 % of control | [8] 92 % of control and 100 % of control | [9] 89 % of control and 100 % of control | [10] 95 % of control

CCOC(=O)C(CCCCC(NC(C)=O)(C(=O)OCC)C(=O)OCC)(NC(C)=O)C(=O)OCC
inactive: [4] 98 % of control | [5] 92 % of control | [10] 92 % of control

Nc1ncnc2[nH]c(=O)[nH]c12
inactive: endpoint: mean survival time, dose: 12.5 mg/kg/injection, schedule: Q01DX009 (ip), vehicle: saline 101 % of control | endpoint: mean survival time, dose: 25.0 mg/kg/injection, schedule: Q01DX009 (ip), vehicle: saline 114 % of control | [11] 105 % of control | endpoint: mean survival time, dose: 100.0 mg/kg/injection, schedule: Q04DX003 (ip), vehicle: saline 108 % of control | endpoint: mean survival time, dose: 200.0 mg/kg/injection, schedule: Q04DX003 (ip), vehicle: saline 112 % of control | endpoint: mean survival time, dose: 400.0 mg/kg/injection, schedule: Q04DX003 (ip), vehicle: saline 108 % of control

NCCN1CCCC1
inactive: [15] 96 % of control | [16] 111 % of control | [17] 103 % of control
